Results on 2 molecules are retold here after ChEMBL document CHEMBL1135198, “Structure-activity relationships of non-imidazole H(3) receptor ligands. Part 1” (Bioorg Med Chem Lett, 2002).

One assay concerns the target Histamine H2 receptor (Homo sapiens, UniProt P25021). The assay can be described thus: Binding affinity for the human Histamine H2 receptor.
The target in a further assay is Histamine H3 receptor (Rattus norvegicus, UniProt Q9QYN8). Kind of assay: Binding affinity for the rat cortical Histamine H3 receptor.
Histamine H3 receptor, sequence (Q9QYN8 whole entry): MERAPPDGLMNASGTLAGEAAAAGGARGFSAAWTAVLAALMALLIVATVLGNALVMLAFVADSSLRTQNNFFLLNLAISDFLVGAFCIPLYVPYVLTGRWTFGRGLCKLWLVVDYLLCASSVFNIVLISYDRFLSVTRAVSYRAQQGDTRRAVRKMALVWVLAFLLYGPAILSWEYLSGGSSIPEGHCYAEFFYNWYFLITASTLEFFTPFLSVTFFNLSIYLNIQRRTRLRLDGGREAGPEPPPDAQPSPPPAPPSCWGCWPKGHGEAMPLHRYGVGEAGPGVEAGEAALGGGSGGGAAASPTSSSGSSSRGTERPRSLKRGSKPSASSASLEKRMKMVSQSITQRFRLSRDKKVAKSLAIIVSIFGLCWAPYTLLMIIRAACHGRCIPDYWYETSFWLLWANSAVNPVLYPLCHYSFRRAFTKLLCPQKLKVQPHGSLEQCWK
For the next assay, the target named is Histamine H1 receptor (Homo sapiens, UniProt P35367). The assay can be described thus: Binding affinity for the human Histamine H1 Receptor.
Histamine H1 receptor, sequence (P35367 whole entry): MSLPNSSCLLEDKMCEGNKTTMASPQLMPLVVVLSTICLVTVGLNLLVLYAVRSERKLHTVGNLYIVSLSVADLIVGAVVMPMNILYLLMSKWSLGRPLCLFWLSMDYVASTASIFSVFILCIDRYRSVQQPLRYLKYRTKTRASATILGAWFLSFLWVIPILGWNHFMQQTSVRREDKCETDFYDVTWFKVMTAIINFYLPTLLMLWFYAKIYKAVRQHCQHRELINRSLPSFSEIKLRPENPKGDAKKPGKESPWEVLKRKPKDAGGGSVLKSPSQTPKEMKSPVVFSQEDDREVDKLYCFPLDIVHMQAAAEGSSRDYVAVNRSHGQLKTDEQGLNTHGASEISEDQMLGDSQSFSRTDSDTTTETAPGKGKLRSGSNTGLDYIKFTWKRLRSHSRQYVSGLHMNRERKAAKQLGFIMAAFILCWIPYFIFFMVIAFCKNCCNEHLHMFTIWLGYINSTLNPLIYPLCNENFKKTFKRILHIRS

Histamine H2 receptor, sequence (P25021 whole entry): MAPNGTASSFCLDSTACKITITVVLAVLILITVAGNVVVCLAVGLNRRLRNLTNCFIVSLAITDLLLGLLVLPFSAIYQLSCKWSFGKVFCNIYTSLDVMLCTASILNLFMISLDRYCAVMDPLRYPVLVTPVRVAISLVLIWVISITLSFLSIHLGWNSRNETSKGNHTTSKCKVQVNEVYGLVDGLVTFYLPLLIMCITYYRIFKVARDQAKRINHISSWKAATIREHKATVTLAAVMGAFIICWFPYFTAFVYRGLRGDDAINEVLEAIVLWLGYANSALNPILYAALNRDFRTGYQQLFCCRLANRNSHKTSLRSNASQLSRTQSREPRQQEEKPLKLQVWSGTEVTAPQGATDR

On to `CCCCCC(=O)c1ccc(OCCCN2CCN(C(=O)c3c[nH]cn3)CC2)cc1`, for which the Ki – broadly, the dissociation constant of the complex between target and ligand, obtained from inhibition or displacement – on Histamine H2 receptor is 19500 nM; on Histamine H3 receptor it was 4.47 nM; on Histamine H1 receptor, 525 nM.

On to `CCCCCC(=O)c1ccc(OCCCN2CCN(C(=O)OC(C)C)CC2)cc1`, for which the Ki is 17800 nM on Histamine H2 receptor, 5.01 nM at Histamine H3 receptor and 309 nM on Histamine H1 receptor.
